Molecular target: T1, human α7 nAChR (Homo sapiens, UniProt P36544)
T1 construct: host or cells: GH4C1 cells (pituitary tumor, immortalized cell line)
Test: α7 nAChR FLIPR (Fluorometric Imaging Plate Reader) Ca2+ assay, agonist EC50
Assay type: cell-based
Conditions: GH4C1 cells stably transfected with human α7 nAChR; Fluo-4 Ca2+ fluorescence; Examples 194 to 205 tested as the HCl salt; read-out: pEC50 value (negative logarithm of the agonist EC50) (converted)
Procedure, shortened: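 GH4C1 cells stably expressing human α7 nAChR, loaded with 2 μM Fluo-4 for 45–60 min at 37 °C in HEPES buffer pH 7.3 with 2 mM CaCl2 and 2.5 mM probenecid. Peak calcium fluorescence (ex 488, em 510–580 nm) after compound addition fitted for agonist EC50, reported as pEC50.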

T1 sequence (P36544 23-502): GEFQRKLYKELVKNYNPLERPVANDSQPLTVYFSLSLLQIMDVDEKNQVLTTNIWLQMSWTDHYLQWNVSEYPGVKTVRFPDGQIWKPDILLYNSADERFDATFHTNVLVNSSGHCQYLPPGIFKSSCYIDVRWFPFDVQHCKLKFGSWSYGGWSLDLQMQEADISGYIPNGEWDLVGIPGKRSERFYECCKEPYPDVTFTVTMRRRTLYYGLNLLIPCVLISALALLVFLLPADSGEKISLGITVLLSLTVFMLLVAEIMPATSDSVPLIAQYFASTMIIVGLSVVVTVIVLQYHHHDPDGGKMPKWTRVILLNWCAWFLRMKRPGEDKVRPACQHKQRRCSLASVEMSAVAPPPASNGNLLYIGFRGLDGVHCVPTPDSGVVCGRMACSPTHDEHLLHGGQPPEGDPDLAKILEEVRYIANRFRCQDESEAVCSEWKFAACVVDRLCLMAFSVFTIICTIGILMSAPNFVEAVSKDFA

Row | Compound | EC50 [µM]
1 | O=C(Nc1ccc(-c2nnc(NCCCN3CCOCC3)o2)cc1)c1ccccc1 [Example 117, N-[4-(5-{[3-(4-morpholinyl)propyl]amino}-1,3,4-oxadiazol-2-yl)phenyl]benzamide] | ≤ 1
2 | COc1cc(NC(=O)C2CCCCC2)ccc1-c1nnc(NCCCCN2CCCC2)o1 [Example 78, N-[3-(methyloxy)-4-(5-{[4-(1-pyrrolidinyl)butyl]amino}-1,3,4-oxadiazol-2-yl)phenyl]cyclohexanecarboxamide] | ≤ 0.1
3 | COc1cc(NC(=O)c2ccccc2)ccc1-c1nnc(NCCCCN2CCCCC2)o1 [Example 32, N-[3-(methyloxy)-4-(5-{[4-(1-piperidinyl)butyl]amino}-1,3,4-oxadiazol-2-yl)phenyl]benzamide] | ≤ 0.1
4 | CCN(CC)CCCNc1nnc(-c2ccc(NC(=O)C3CCCCC3)cc2OC)o1 [Example 81, N-[4-(5-{[3-(diethylamino)propyl]amino}-1,3,4-oxadiazol-2-yl)-3-(methyloxy)phenyl]cyclohexanecarboxamide] | ≤ 1
5 | CCN(CC)CCCNc1nnc(-c2ccc(NC(=O)C3CCCCC3)cc2C(F)(F)F)o1 [Example 67, N-[4-(5-{[3-(diethylamino)propyl]amino}-1,3,4-oxadiazol-2-yl)-3-(trifluoromethyl)phenyl]cyclohexanecarboxamide] | ≤ 1
6 | COc1cc(NC(=O)C2CCCCC2)ccc1-c1nnc(NCCCCN2CCOCC2)o1 [Example 80, N-[3-(methyloxy)-4-(5-{[4-(4-morpholinyl)butyl]amino}-1,3,4-oxadiazol-2-yl)phenyl]cyclohexanecarboxamide] | ≤ 1
7 | O=C(Nc1ccc(-c2nnc(NCCCCN3CCOCC3)o2)cc1)c1ccccc1 [Example 116, N-[4-(5-{[4-(4-morpholinyl)butyl]amino}-1,3,4-oxadiazol-2-yl)phenyl]benzamide] | ≤ 1
8 | COc1cc(NC(=O)C2CCCCC2)ccc1-c1nnc(NCCCN2CCCC2)o1 [Example 77, N-[3-(methyloxy)-4-(5-{[3-(1-pyrrolidinyl)propyl]amino}-1,3,4-oxadiazol-2-yl)phenyl]cyclohexanecarboxamide] | ≤ 1
9 | O=C(Nc1ccc(-c2nnc(NCCCN3CCCCC3)o2)c(F)c1)c1ccccc1 [Example 113, N-[3-fluoro-4-(5-{[3-(1-piperidinyl)propyl]amino}-1,3,4-oxadiazol-2-yl)phenyl]benzamide] | ≤ 1
10 | O=C(Nc1ccc(-c2nnc(NCCCN3CCCCC3)o2)c(C(F)(F)F)c1)c1ccccc1 [Example 97, N-[4-(5-{[3-(1-piperidinyl)propyl]amino}-1,3,4-oxadiazol-2-yl)-3-(trifluoromethyl)phenyl]benzamide] | ≤ 1
11 | COc1cc(NC(=O)c2ccccc2)ccc1-c1nnc(NCCCN2CCCC2)o1 [Example 70, N-[3-(methyloxy)-4-(5-{[3-(1-pyrrolidinyl)propyl]amino}-1,3,4-oxadiazol-2-yl)phenyl]benzamide] | ≤ 1

Second part, the molecule after the results:

Row | EC50 [µM] | Compound
12 | ≤ 1 | CCN(CC)CCCNc1nnc(-c2ccc(NC(=O)C3CC3)cc2OC)o1 [Example 231, N-[4-(5-{[3-(diethylamino)propyl]amino}-1,3,4-oxadiazol-2-yl)-3-(methyloxy)phenyl]cyclopro-panecarboxamidetrifluoroacetate]
13 | ≤ 1 | CCN(CC)CCCNc1nnc(-c2ccc(NC(=O)C3CCCCC3)cc2Cl)o1 [Example 159, N-[3-chloro-4-(5-{[3-(diethylamino)propyl]amino}-1,3,4-oxadiazol-2-yl)phenyl]cyclohexanecarboxamide]
14 | ≤ 0.1 | CCc1cc(NC(=O)c2ccccc2F)ccc1-c1nnc(NCCCCN(CC)CC)o1 [Example 171, N-[4-(5-{[4-(diethylamino)butyl]amino}-1,3,4-oxadiazol-2-yl)-3-ethylphenyl]-2-fluorobenzamide]
15 | ≤ 1 | O=C(Nc1ccc(-c2nnc(NCCCN3CCCC3)o2)c(Cl)c1)C1CCCCC1 [Example 157, N-[3-chloro-4-(5-{[3-(1-pyrrolidinyl)propyl]amino}-1,3,4-oxadiazol-2-yl)phenyl]cyclohexanecarboxamide]
16 | ≤ 0.1 | O=C(Nc1ccc(-c2nnc(NCCCCN3CCCCC3)o2)c(Cl)c1)C1CCCCC1 [Example 164, N-[3-chloro-4-(5-{[4-(1-piperidinyl)butyl]amino}-1,3,4-oxadiazol-2-yl)phenyl]cyclohexanecarboxamide]
17 | ≤ 1 | COc1cc(NC(=O)CC(C)C)ccc1-c1nnc(NCCCN2CCOCC2)o1 [Example 229, 3-methyl-N-[3-(methyloxy)-4-(5-{[3-(4-morpholinyl)propyl]amino}-1,3,4-oxadiazol-2-yl)phenyl]butanamidetrifluoroacetate]
18 | ≤ 1 | CCN(CC)CCCNc1nnc(-c2ccc(NC(=O)C3CCCC3)cc2OC)o1 [Example 235, N-[4-(5-{[3-(diethylamino)propyl]amino}-1,3,4-oxadiazol-2-yl)-3-(methyloxy)phenyl]cyclo-pentanecarboxamidetrifluoroacetate]
19 | ≤ 0.1 | CCc1cc(NC(=O)c2ccccc2F)ccc1-c1nnc(NCCCCN2CCOCC2)o1 [Example 172, N-[3-ethyl-4-(5-{[4-(4-morpholinyl)butyl]amino}-1,3,4-oxadiazol-2-yl)phenyl]-2-fluorobenzamide]
20 | ≤ 1 | CCc1cc(NC(=O)c2ccccc2F)ccc1-c1nnc(NCCCCN2CCCCC2)o1 [Example 168, N-[3-ethyl-4-(5-{[4-(1-piperidinyl)butyl]amino}-1,3,4-oxadiazol-2-yl)phenyl]-2-fluorobenzamide]
